Data published in patent US20140357512A1, “HISTONE DEACETYLASE (HDAC) BIOMARKERS IN MULTIPLE MYELOMA” (priority 2013, published 2014).

Test system: human myeloma cell line MM.1S
Assay: SILAC acetylated-lysine peptide profiling, HDAC inhibitor vs DMSO (light/heavy ratio)
Assay type: cell-based
From the text: An embodiment of the invention comprises utilizing the SILAC method in order to quantitate changes in protein expression between two or more populations of cells. The SILAC method is a technique based on mass spectrometry that detects differences in protein abundance among samples using non-radioactive isotopic labeling. The SILAC method is known in the art, and described in detail in Ong et al., “Stable Isotope Labeling by Amino Acids in Cell Culture, SILAC, as a Simple and Accurate Approach to Expression Proteomics”, Molecular & Cellular Proteomics, vol. 1, pp. 376-386 (2002), which is incorporated herein by reference in its entirety.
Briefly, the SILAC method involves growing two populations of cells in cell culture. The first population of cells is grown in growth media containing normal amino acids (“normal media”). The second population of cells is grown in media lacking a standard essential amino acid (such as lysine), but is then supplemented with a non-radioactive, isotopically labeled form of that essential amino acid (such as lysine labeled with ^13C atoms, rather than normal ^12C atoms), which is called “heavy media”. When the two populations of cells are each growing in the medium, they incorporate the amino acids into all of their proteins. The growth of cells maintained in the heavy media is no different from that in normal media. All peptides containing the heavy amino acids are heavier than their normal counterparts. The cells from each of the two populations of cells are lysed. The lysates from each of the two cell populations are then combined. The combined cell lysates are then analyzed by mass spectrometry. Pairs of chemically identical peptides of different stable isotope composition can be differentiated in a mass spectrometer due to their difference in mass. The ratio of peak intensities in the mass spectrum for such peptide pairs reflects the abundance ratio for the two proteins.
This example describes SILAC studies that were performed to compare the effects of three different HDAC inhibitors (Compound A, Compound B, and tubastatin A) to a control on a human multiple myeloma cell line. The HDAC inhibitors were also compared amongst themselves to determine differences in their effects.
A human myeloma cell line MM.1S was grown using either ^12C (light) or ^13C (heavy) lysine containing culture medium. The “heavy” cells were treated with DMSO as the control, and the “light” cells were treated with a single HDAC inhibitor at 37° C. for 6 hours. The heavy and light cells were lysed, and the lysates were mixed in 1:1 ratio and digested with the protease trypsin. The acetylated lysine containing peptides (due to the action of the HDAC inhibitor) in the digested peptide pool were captured by a non-specific anti-acetylated lysine antibody cocktail (the antibodies identify both light and heavy acetylated peptides), and subjected to mass spectrometry analysis in order to identify thousands of individual peptides.
Thousands of peptides were identified in pairs (^12C and ^13C) due to their known mass differences. The amino acid sequence and quantitative ratio (Light/Heavy) of a given peptide in two differentially treated cell lysates were then determined and annotated with their possible protein (gene) sources.
As stated above, three HDAC inhibitors (Compound A, Compound B, and Tubastatin A) were used. Thus, the SILAC method was performed three times, with a different HDAC inhibitor compared to a control each time. Accordingly, there are three pairs of quantitative data in the table below, i.e., Compound A:DMSO, Compound B:DMSO, and Tubastatin A:DMSO. A cut-off of 1.30 fold of change (increase or decrease) was then used to determine “changed” or “+” in the table, and any peptides with a fold of change less than 1.3 fold were determined to be “unchanged” or “0” in the table. Those peptides that were not identified were marked as “NA” in the table. […]

## O=C(NO)c1cnc(NC2(c3cccc(F)c3)CCCCC2)nc1 [Compound B, 2-((1-(3-fluorophenyl)cyclohexyl)amino)-N-hydroxypyrimidine-5-carboxamide]
10 kDa heat shock protein mitochondrial [70], gene HSPE1, drug:DMSO
  light to heavy ratio (L/H ratio), log 2 scale, acetylated peptide VGDK(ac)[…] (SEQ ID NO: 773): 0.00
39S ribosomal protein L20 mitochondrial [26], MRPL20, drug:DMSO
  light to heavy ratio (L/H ratio) of acetylated peptide IQEVLK(ac)HAR (SEQ ID NO: 264): 0.00 log 2
40S ribosomal protein S10 [31], RPS10, drug:DMSO
  light to heavy ratio (L/H ratio) of acetylated peptide KDVHMPK(ac)HPELADK (SEQ ID NO: 353): 0.56 log 2
40S ribosomal protein S17 [49], gene RPS17, RPS17L, inhibitor:DMSO
  light to heavy ratio (L/H ratio) of acetylated peptide NK(ac)[…] (SEQ ID NO: 559): 0.00 log 2
60S ribosomal protein L8 [177], gene RPL8, inhibitor:DMSO
  light to heavy ratio (L/H ratio) of acetylated peptide IDK(ac)PILK (SEQ ID NO: 506): 0.00 log 2
60S ribosomal protein L10-like [208], gene RPL10L, inhibitor:DMSO
  light to heavy ratio (L/H ratio) of acetylated peptide GPLDK(ac)WR (SEQ ID NO: 622): 0.00 log 2
60S ribosomal protein L10 [78], gene SNORA70, RPL10, drug:DMSO
  light to heavy ratio (L/H ratio), log 2 scale, acetylated peptide YMVK(ac)SCGK (SEQ ID NO: 811): 0.00
60S ribosomal protein L10a [152], gene RPL10A, drug:DMSO
  light to heavy ratio (L/H ratio), log 2 scale, acetylated peptide VDEVK(ac)STIK (SEQ ID NO: 805): 0.00
60S ribosomal protein L13 [174], gene RPL13, inhibitor:DMSO
  light to heavy ratio (L/H ratio) of acetylated peptide VITEEEK(ac)NFK (SEQ ID NO: 522): 0.00 log 2
60S ribosomal protein L13a [134], gene SNORD32A, RPL13A, SNORD33, SNORD34, inhibitor:DMSO
  light to heavy ratio (L/H ratio) of acetylated peptide K(ac)FAYLGR (SEQ ID NO: 614): 0.00 log 2
60S ribosomal protein L13a [148], gene SNORD32A, RPL13A, SNORD33, SNORD34, drug:DMSO
  light to heavy ratio (L/H ratio), log 2 scale, acetylated peptide LAHEVGWK(ac)[…] (SEQ ID NO: 812): 0.00
60S ribosomal protein L15 [179], gene RPL15, inhibitor:DMSO
  light to heavy ratio (L/H ratio) of acetylated peptide GHK(ac)FHHTIGGSR (SEQ ID NO: 519): 0.00 log 2
60S ribosomal protein L27 [73], gene RPL27, drug:DMSO
  light to heavy ratio (L/H ratio), log 2 scale, acetylated peptide SFVK(ac)[…] (SEQ ID NO: 770): 0.00
60S ribosomal protein L27 [93], gene RPL27, drug:DMSO
  light to heavy ratio (L/H ratio), log 2 scale, acetylated peptide YSVDIPLDK(ac)TVVNK (SEQ ID NO: 807): 0.00
60S ribosomal protein L28 [19], gene RPL28, inhibitor:DMSO
  light to heavy ratio (L/H ratio) of acetylated peptide NCSSFLIK(ac)R (SEQ ID NO: 558): 0.00 log 2
60S ribosomal protein L31 [39], gene RPL31, inhibitor:DMSO
  light to heavy ratio (L/H ratio) of acetylated peptide IHGVGFK(ac)K (SEQ ID NO: 542): 0.00 log 2
60S ribosomal protein L31 [70], gene RPL31, drug:DMSO
  light to heavy ratio (L/H ratio), log 2 scale, acetylated peptide LNK(ac)AVWAK (SEQ ID NO: 808): 0.00
60S ribosomal protein L35a [8], gene RPL35A, inhibitor:DMSO
  light to heavy ratio (L/H ratio) of acetylated peptide LWSK(ac)AIFAGYK (SEQ ID NO: 538): 0.00 log 2
60S ribosomal protein L37a [36], RPL37A, drug:DMSO
  light to heavy ratio (L/H ratio) of acetylated peptide KIEISQHAK(ac)YTCSFCGK (SEQ ID NO: 351): 0.41 log 2
78 kDa glucose-regulated protein [268], HSPA5, drug:DMSO
  light to heavy ratio (L/H ratio) of acetylated peptide VMEHFIK(ac)LYK (SEQ ID NO: 276): 0.00 log 2
78 kDa glucose-regulated protein [326], HSPA5, drug:DMSO
  light to heavy ratio (L/H ratio) of acetylated peptide AK(ac)[…] (SEQ ID NO: 266): 0.00 log 2
116 kDa U5 small nuclear ribonucleoprotein component [790], EFTUD2, drug:DMSO
  light to heavy ratio (L/H ratio) of acetylated peptide FK(ac)[…] (SEQ ID NO: 333): −0.99 log 2
(ac)AQLGK(ac)LLK (SEQ ID NO: 421), NEDD8-activating enzyme E1 regulatory subunit [6], NAE1
  L/H ratio of acetylated peptide: 0.70 log 2
(ac)MEDYTK(ac)IEK (SEQ ID NO: 374), Isoform 2 of Cyclin-dependent kinase 1 [6], CDK1
  L/H ratio of acetylated peptide: −0.51 log 2
(ac)SIGVPIK(ac)[…] (SEQ ID NO: 224), Small nuclear ribonucleoprotein Sm D3 [8], SNRPD3
  light to heavy ratio (L/H ratio) of acetylated peptide, log 2 scale: 0.00
(ac)SNMEK(ac)HLFNLK (SEQ ID NO: 376), Charged multivesicular body protein 1b [6], CHMP1B
  L/H ratio of acetylated peptide: 0.85 log 2
(ac)SSNECFK(ac)CGR (SEQ ID NO: 379), Isoform 1 of Cellular nucleic acid-binding protein [8], CNBP
  L/H ratio of acetylated peptide: −0.82 log 2
(ac)SVFGK(ac)LFGAGGGK (SEQ ID NO: 143), Charged multivesicular body protein 4b [6], CHMP4B
  light to heavy ratio (L/H ratio) of acetylated peptide, log 2 scale: 0.00
(ac)[…](ac)DLK (SEQ ID NO: 437), Isoform 2 of Prothymosin alpha [15], PTMA, MIR1244-3, MIR1244-2, MIR1244-1
  L/H ratio of acetylated peptide: 0.61 log 2
(ac)[…](ac)SAR (SEQ ID NO: 464), Voltage-dependent anion-selective channel protein 1 [12], VDAC1
  L/H ratio of acetylated peptide: −0.78 log 2
ACK(ac)LAIR (SEQ ID NO: 463), Transitional endoplasmic reticulum ATPase [696], VCP
  L/H ratio of acetylated peptide: −0.58 log 2
ACOX1 [504], log 2 scale, drug vs DMSO
  L/H ratio of acetylated peptide NLQK(ac)EVIHR (SEQ ID NO: 125): 0.00
